Among the data in patent publication US20250221966A1, “RXFP1 AGONISTS” (BRISTOL-MYERS SQUIBB COMPANY, priority 2021, published 2025) are EC50 values, retold here.

Molecules are shown by their SMILES.

The first experiment concerns the target T1, human RXFP1 (Homo sapiens, UniProt Q9HBX9).
T1 construct: expressed in transfected cells
T1 sequence (Q9HBX9 1-757): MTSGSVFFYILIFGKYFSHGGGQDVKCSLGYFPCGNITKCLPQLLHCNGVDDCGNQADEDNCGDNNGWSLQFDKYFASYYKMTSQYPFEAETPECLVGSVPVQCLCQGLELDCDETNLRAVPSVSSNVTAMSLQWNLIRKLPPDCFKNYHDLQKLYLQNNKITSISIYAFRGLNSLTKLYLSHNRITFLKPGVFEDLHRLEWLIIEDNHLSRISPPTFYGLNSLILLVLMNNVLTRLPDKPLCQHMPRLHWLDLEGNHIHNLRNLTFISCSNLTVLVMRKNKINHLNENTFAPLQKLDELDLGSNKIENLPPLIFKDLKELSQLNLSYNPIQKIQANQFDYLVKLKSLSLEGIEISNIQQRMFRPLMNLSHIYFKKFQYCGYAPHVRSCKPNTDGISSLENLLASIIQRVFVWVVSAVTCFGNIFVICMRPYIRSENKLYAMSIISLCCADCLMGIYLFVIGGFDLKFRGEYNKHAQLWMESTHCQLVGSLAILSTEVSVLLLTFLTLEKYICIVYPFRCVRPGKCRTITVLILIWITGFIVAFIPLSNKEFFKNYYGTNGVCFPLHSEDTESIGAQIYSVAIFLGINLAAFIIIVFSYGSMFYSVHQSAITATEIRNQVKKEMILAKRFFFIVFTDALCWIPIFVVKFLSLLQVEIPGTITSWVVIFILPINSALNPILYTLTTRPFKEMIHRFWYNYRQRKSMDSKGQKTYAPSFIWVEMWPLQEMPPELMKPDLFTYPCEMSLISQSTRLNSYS
Kind of experiment: RXFP1 cAMP assay (hRXFP1 HEK293 cAMP assay, HTRF). In kind it is cell-based. As to conditions: HEK293 cells stably expressing human RXFP1, 30 min at room temperature, read-out: cAMP hRXFP1 HEK293 Assay EC50. In short, it runs like this:
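HEK293 cells stably expressing human RXFP1 were suspended in HBSS (Ca/Mg) with 20 mM HEPES, 0.05% BSA and 0.5 mM IBMX, then treated with compounds (0.010 nM–50 μM, 2% DMSO final) for 30 min at room temperature. Intracellular cAMP was measured by HTRF, and potency was derived from 4-parameter logistic fits.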
On the technique in general: cAMP levels reflect the balance of adenylyl cyclase and phosphodiesterase activity.
The EC50 is the midpoint of the concentration-response curve. For `COc1ccc(-c2cc(C(OC(=O)Nc3ccccc3F)C(F)(F)F)ccc2F)cc1C(=O)N[C@@H]1C2CCC(/C2=C/C2CC2)[C@@H]1C(=O)Nc1ccc(F)c(C(F)(F)F)c1` (stereo partly shown) [compound 223], the half-maximal effective concentration (EC50) worked out at 2 nM.
For `COc1ccccc1NC(=O)OC(c1ccc(F)c(-c2ccc(OC)c(C(=O)N[C@@H]3C4CCC(/C4=C/C4CC4)[C@@H]3C(=O)Nc3ccc(F)c(C(F)(F)F)c3)c2)c1)C(F)(F)F` (stereo partly shown) [compound 225], the EC50 is 3 nM.
On to `COc1ccc(-c2cc(C(C)OC(=O)Nc3ccc(F)cc3)ccc2F)cc1C(=O)N[C@@H]1C2CCC(/C2=C/C2CC2)[C@@H]1C(=O)Nc1ccc(F)c(C(F)(F)F)c1` (stereo partly shown) [compound 226], for which the EC50 stood at 3 nM.
Same read-out and setting: for `COc1ccc(-c2cc(C(OC(=O)Nc3ccc(Cl)cc3)C(F)(F)F)ccc2F)cc1C(=O)N[C@@H]1C2CCC(/C2=C/C2CC2)[C@@H]1C(=O)Nc1ccc(F)c(C(F)(F)F)c1` (stereo partly shown) [compound 227] the value was 3 nM.
Consider `COc1ccc(-c2cc(C(OC(=O)Nc3cccc(F)c3)C(F)(F)F)ccc2F)cc1C(=O)N[C@@H]1C2CCC(/C2=C/C2CC2)[C@@H]1C(=O)Nc1ccc(F)c(C(F)(F)F)c1` (stereo partly shown) [compound 228], for which the EC50 was 3 nM.
Consider `COc1ccc(-c2cc(C(OC(=O)NC3CCC3)C(F)F)ccc2F)cc1C(=O)N[C@@H]1C2CCC(/C2=C/C2CC2)[C@@H]1C(=O)Nc1ccc(F)c(C(F)(F)F)c1` (stereo partly shown) [compound 231], for which the EC50 was 1 nM.
The same measure, in the same setting: the figure for `COc1ccc(-c2cc(C(OC(=O)NC34CC(C3)C4)C(F)F)ccc2F)cc1C(=O)N[C@@H]1C2CCC(/C2=C/C2CC2)[C@@H]1C(=O)Nc1ccc(F)c(C(F)(F)F)c1` (stereo partly shown) [compound 232] is 1 nM; for `CNC(=O)OC(C(=O)NOC)c1ccc(F)c(-c2ccc(OC)c(C(=O)N[C@@H]3C4CCC(/C4=C/C4CC4)[C@@H]3C(=O)Nc3ccc(F)c(C(F)(F)F)c3)c2)c1` (stereo partly shown) [compound 234] it is 1 nM.
On the same count and under the same terms, for `CNC(=O)OC(C(=O)NC)c1ccc(F)c(-c2ccc(OC)c(C(=O)N[C@@H]3C4CCC(/C4=C/C4CC4)[C@@H]3C(=O)Nc3ccc(F)c(C(F)(F)F)c3)c2)c1` (stereo partly shown) [compound 235] the value was 1 nM; for `CNC(=O)C(OC(=O)Nc1ccccc1)c1ccc(F)c(-c2ccc(OC)c(C(=O)N[C@@H]3C4CCC(/C4=C/C4CC4)[C@@H]3C(=O)Nc3ccc(F)c(C(F)(F)F)c3)c2)c1` (stereo partly shown) [compound 237], 2 nM.
As for `COc1ccc(-c2cc(C(NC(=O)C3CCOCC3)C(=O)O)ccc2F)cc1C(=O)N[C@@H]1C2CCC(/C2=C/C(F)(F)F)[C@@H]1C(=O)Nc1ccc(F)c(C(F)(F)F)c1` (stereo partly shown) [compound 239], the EC50 came out at 1 nM.
On the same count and under the same terms, for `COc1ccc(-c2cc(C(NC(=O)Cc3ccccc3)C(=O)O)ccc2F)cc1C(=O)N[C@@H]1C2CCC(/C2=C/C(F)(F)F)[C@@H]1C(=O)Nc1ccc(F)c(C(F)(F)F)c1` (stereo partly shown) [compound 240] the value was 1 nM; for `COc1ccc(-c2cc(C(NC(=O)C(F)(F)F)C(=O)O)ccc2F)cc1C(=O)N[C@@H]1C2CCC(/C2=C/C(F)(F)F)[C@@H]1C(=O)Nc1ccc(F)c(C(F)(F)F)c1` (stereo partly shown) [compound 241], 3 nM.
On the same count and under the same terms, for `COc1ccc(-c2cc(C(NC(=O)CC3CCOCC3)C(=O)O)ccc2F)cc1C(=O)N[C@@H]1C2CCC(/C2=C/C(F)(F)F)[C@@H]1C(=O)Nc1ccc(F)c(C(F)(F)F)c1` (stereo partly shown) [compound 242] the value was 3 nM; for `COCC(=O)NC(C(=O)O)c1ccc(F)c(-c2ccc(OC)c(C(=O)N[C@@H]3C4CCC(/C4=C/C(F)(F)F)[C@@H]3C(=O)Nc3ccc(F)c(C(F)(F)F)c3)c2)c1` (stereo partly shown) [compound 243], 4 nM; for `COc1ccc(-c2cc(C(NC(=O)COc3ccccc3)C(=O)O)ccc2F)cc1C(=O)N[C@@H]1C2CCC(/C2=C/C(F)(F)F)[C@@H]1C(=O)Nc1ccc(F)c(C(F)(F)F)c1` (stereo partly shown) [compound 244], 7 nM.
Still for that read-out and setting: for `COC(=O)C(NC(=O)C1CCOCC1)c1ccc(F)c(-c2ccc(OC)c(C(=O)N[C@@H]3C4CCC(/C4=C/C(F)(F)F)[C@@H]3C(=O)Nc3ccc(F)c(C(F)(F)F)c3)c2)c1` (stereo partly shown) [compound 247] the value was 73 nM.
`COc1ccc(-c2cc(C(C)O)ccc2F)cc1C(=O)N[C@@H]1C2CCC(/C2=C/C2CC2)[C@@H]1C(=O)Nc1ccc(F)c(C(F)(F)F)c1` (stereo partly shown) [compound 248]: the EC50 stood at 4 nM.
The same measure, in the same setting: for `COc1ccc(-c2ccc(N3CCOCC3)nc2)cc1C(=O)N[C@@H]1C2CCC(/C2=C/C2CC2)[C@@H]1C(=O)Nc1ccc(F)c(C(F)(F)F)c1` (stereo partly shown) [compound 250] the value was 12 nM.
The same measure, in the same setting: for `O=C(NC1CCC1)OC(c1ccc(F)c(-c2ccc(OCc3ccccc3)c(C(=O)N[C@@H]3C4CCC(/C4=C/C4CC4)[C@@H]3C(=O)Nc3ccc(F)c(C(F)(F)F)c3)c2)c1)C(F)(F)F` (stereo partly shown) [compound 252] the value was 11 nM; for `COc1ccc(-c2cc(C3OC(=O)N(c4ccccc4)C3=O)ccc2F)cc1C(=O)N[C@@H]1C2CCC(/C2=C/C2CC2)[C@@H]1C(=O)Nc1ccc(F)c(C(F)(F)F)c1` (stereo partly shown) [compound 255], 3 nM.
On the same count and under the same terms, for `COc1ccc(-c2cc(C(CO)NC(=O)C3CCOCC3)ccc2F)cc1C(=O)N[C@@H]1C2CCC(/C2=C/C2CC2)[C@@H]1C(=O)Nc1ccc(F)c(C(F)(F)F)c1` (stereo partly shown) [compound 257] the value was 16 nM.
In the case of `COc1ccc(-c2cc(C(=O)O)ccc2F)cc1C(=O)N[C@@H]1C2CCC(/C2=C/C2CC2)[C@@H]1C(=O)NCc1ccccc1` (stereo partly shown) [compound 260], the EC50 came to 2970 nM.
The same measure, in the same setting: for `COc1ccc(-c2cc(C(=O)O)ccc2F)cc1C(=O)N[C@@H]1C2CCC(/C2=C/C2CC2)[C@@H]1C(=O)N[C@H](C)c1ccccc1` (stereo partly shown) [compound 261] the value was 1880 nM; for `COc1ccc(-c2cc(C(=O)O)ccc2F)cc1C(=O)N[C@@H]1C2CCC(/C2=C/C2CC2)[C@@H]1C(=O)N[C@@H](C)c1ccccc1C(F)(F)F` (stereo partly shown) [compound 262], 139 nM; for `COc1ccc(-c2cc(C(=O)O)ccc2F)cc1C(=O)N[C@@H]1C2CCC(/C2=C/C2CC2)[C@@H]1C(=O)NCc1cccc(C(F)(F)F)c1` (stereo partly shown) [compound 264], 3180 nM.
Same read-out and setting: the figure for `COc1ccc(-c2cc(C(=O)O)ccc2F)cc1C(=O)N[C@@H]1C2CCC(/C2=C/C2CC2)[C@@H]1C(=O)Nc1cccc(-c2csnn2)c1` (stereo partly shown) [compound 271] is 664 nM.
Same read-out and setting: for `COc1ccc(-c2cc(C(=O)O)ccc2F)cc1C(=O)N[C@@H]1C2CCC(/C2=C/C2CC2)[C@@H]1C(=O)Oc1cccc(-c2nnnn2C)c1` (stereo partly shown) [compound 272] the value was 3830 nM; for `COc1ccc(-c2ccnc(N3CCOCC3)c2F)cc1C(=O)N[C@@H]1C2CCC(/C2=C/C2CC2)[C@@H]1C(=O)Nc1ccc(F)c(C(F)(F)F)c1` (stereo partly shown) [compound 274], 16 nM; for `COc1ccc(-c2cccnc2)cc1C(=O)N[C@@H]1C2CCC(/C2=C/C2CC2)[C@@H]1C(=O)Nc1ccc(F)c(C(F)(F)F)c1` (stereo partly shown) [compound 278], 32 nM.
For the compound `COc1ncc(-c2ccc(OC)c(C(=O)N[C@@H]3C4CCC(/C4=C/C4CC4)[C@@H]3C(=O)Nc3ccc(F)c(C(F)(F)F)c3)c2)cn1` (stereo partly shown) [compound 279], the EC50 came to 15 nM.
The same measure, in the same setting: for `COc1ccc(-c2cc(C(F)F)ccc2F)cc1C(=O)N[C@@H]1C2CCC(/C2=C/C2CC2)[C@@H]1C(=O)Nc1ccc(F)c(C(F)(F)F)c1` (stereo partly shown) [compound 280] the value was 12 nM; for `COc1ccc(-c2cccc(OC(F)(F)F)c2)cc1C(=O)N[C@@H]1C2CCC(/C2=C/C2CC2)[C@@H]1C(=O)Nc1ccc(F)c(C(F)(F)F)c1` (stereo partly shown) [compound 281], 15 nM.
Same read-out and setting: for `COc1ccc(-c2cc(C(F)(F)F)cnc2F)cc1C(=O)N[C@@H]1C2CCC(/C2=C/C2CC2)[C@@H]1C(=O)Nc1ccc(F)c(C(F)(F)F)c1` (stereo partly shown) [compound 282] the value was 25 nM.
The same measure, in the same setting: the figure for `COc1ccc(-c2cccc(C(F)(F)F)n2)cc1C(=O)N[C@@H]1C2CCC(/C2=C/C2CC2)[C@@H]1C(=O)Nc1ccc(F)c(C(F)(F)F)c1` (stereo partly shown) [compound 283] is 69 nM; for `COc1ccc(-c2ccnc(C(F)F)c2)cc1C(=O)N[C@@H]1C2CCC(/C2=C/C2CC2)[C@@H]1C(=O)Nc1ccc(F)c(C(F)(F)F)c1` (stereo partly shown) [compound 284] it is 109 nM.
`COc1ccc(-c2cc(OC(F)(F)F)ccc2F)cc1C(=O)N[C@@H]1C2CCC(/C2=C/C2CC2)[C@@H]1C(=O)Nc1ccc(F)c(C(F)(F)F)c1` (stereo partly shown) [compound 285]: the EC50 came out at 7 nM.
Same read-out and setting: for `COc1ccc(-c2cc(C(F)(F)F)ccc2F)cc1C(=O)N[C@@H]1C2CCC(/C2=C/C2CC2)[C@@H]1C(=O)Nc1ccc(F)c(C(F)(F)F)c1` (stereo partly shown) [compound 286] the value was 5 nM; for `COc1ccc(-c2cccc(CC(F)(F)F)c2)cc1C(=O)N[C@@H]1C2CCC(/C2=C/C2CC2)[C@@H]1C(=O)Nc1ccc(F)c(C(F)(F)F)c1` (stereo partly shown) [compound 287], 7 nM.

Still in this experiment, the particulars now being: cAMP hRXFP1 HEK293 Assay EC50, HEK293 cells stably expressing human RXFP1, 30 min at room temperature.
In turn, `COc1ccc(-c2cc(C(=O)O)ccc2F)cc1C(=O)N[C@@H]1C2CCC(/C2=C/C2CC2)[C@@H]1C(=O)Nc1ccc(C#N)c(C(F)(F)F)c1` (stereo partly shown) [compound 270] came in with an EC50 of 25 nM.
